Experimental data published in publication PMC6039436, “Radiobrominated benzimidazole-quinoline derivatives as Platelet-derived growth factor receptor beta (PDGFRβ) imaging probes” (Scientific Reports, 2018).
Where “and” joins values, the source holds several entries; their conditions need not be identical. Equal entries are not always repeated.

Experiments:
BxPC3-luc tumor = experiment: Biodistribution in BxPC3-luc tumor-bearing mice; assay type: in vivo, BALB/c nu/nu mice; settings: i.v. co-injection, 1 h
How it was run: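 BALB/c nu/nu mice bearing subcutaneous BxPC3-luc tumours received 74 kBq each of co-injected ^77Br and ^125I tracers i.v. in saline with 10% ethanol, 1% tween-80. Sacrificed 1 h postinjection; tissues weighed and gamma-counted. Values are %ID/g.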

[1] = tested on: BxPC3-luc cells (PDGFRβ-positive); experiment: Cellular uptake study (double tracer method); assay type: cell-based; settings: BxPC3-luc (PDGFRβ-positive) vs MCF7 (PDGFRβ-negative), 0.5–4 h
Procedure: Figure 5 Cellular uptake study. Time-dependent accumulation of (a) [^77Br]2 and [^125I]4 (b) [^77Br]3 and [^125I]5 in BxPC3-luc and MCF7 cells. Data were presented as mean ± SD for three samples.
Radiotracer uptake experiments in tumor cells were performed using BxPC3-luc and MCF7 cell lines. To compare the uptake between radiobrominated compounds, [^77Br]2 and [^77Br]3, and the corresponding radioiodinated compounds, [^125I]4 and [^125I]5, the cellular uptake experiments were performed by a double tracer method as described previously with a slight modification[30],[31],[35]. Briefly, the cells were seeded in RPMI 1640 medium containing 10% FBS and antibiotics on six-well plates (2 × 10^5 cells/well) for 24 h in a 5% CO2 incubator at 37 °C. After removal of medium, cells were incubated in medium without FBS containing [^77Br]2 (3.7 kBq/well) and [^125I]4 (3.7 kBq/well) or [^77Br]3 (3.7 kBq/well) and [^125I]5 (3.7 kBq/well) and tween-80 (0.1%) for 0.5, 1, 2 and 4 h. Radioiodinated compounds were prepared as described previously][24]. Cells were washed with ice-cold 1 mL of PBS and dissolved using 0.5 mL of 1 M NaOH and wells were washed with 1 M NaOH aqueous solution (0.5 mL). The radioactivity of pooled basic fractions was counted by a gamma counter. A range between 16 and 71 keV was used for measuring ^125I and between 95 and 700 for ^77Br. When radioactivity of ^77Br was counted, the crossover of ^125I activity into the ^77Br channel was negligible. More than one month after the experiment, the radioactivity of ^125I was determined because at that time ^77Br has been decayed and its radioactivity was negligible. The protein in the cell was quantified by a BCA Protein Assay Kit. All data were expressed as %dose/µg protein.

[2] = In vitro stability in 0.1 M PBS (pH 7.4); assay type: physicochemical; settings: 24 h incubation at 37 °C, purity by TLC
Procedure: The stability of [^77Br]2 and [^77Br]3 in 0.1 M phosphate-buffered saline (PBS) (pH 7.4) was high (93.6 ± 0.9% and 93.0 ± 0.6%, respectively). There was no significant decomposition after 24 h incubation at 37 °C for either radiotracer.
The stability of radiolabeled compounds, [^77Br]2 and [^77Br]3, were analyzed as described previously. The purities radiolabeled compounds were determined by TLC using chloroform/methanol = 5/1 and 20/1 as a developing solvent for [^77Br]2 and [^77Br]3, respectively. The results were confirmed by RP-HPLC.

[3] = Biodistribution in ddY mice; assay type: in vivo; settings: i.v. co-injection
How it was run: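 ddY mice got a 100 µL tail-vein injection of [^77Br]2 with [^125I]4, or [^77Br]3 with [^125I]5 (74 kBq each), in saline containing 10% ethanol and 1% tween-80. Animals were killed at 10 min, 1, 4 and 24 h; tumor-bearing mice were killed at 1 h. Resected tissues were weighed and gamma-counted with background correction, and values are %ID/g.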

## COCCOc1ccc2c(c1)ncn2-c1ccc2cccc(N3CCC(NC(=O)c4cccc([77Br])c4)CC3)c2n1 [[^77Br]3, [^77Br]-N-3-bromobenzoyl-1-{2-[5-(2-methoxyethoxy)-1H-benzo[d]imidazol-1-yl]quinolin-8-yl}-piperidin-4-amine]
BxPC3-luc tumor
  Radioactivity in Blood: 1.16 (0.02) %injected dose/gram of tissue
  Radioactivity in Bone: 1.32 (0.08) %injected dose/gram of tissue
  Radioactivity in Brain: 0.17 (0.02) %injected dose/gram of tissue
  Radioactivity in BxPC3-luc tumor: 1.15 %injected dose/gram of tissue and 1.15 (0.35) %injected dose/gram of tissue
  Radioactivity in Heart: 1.83 (0.04) %injected dose/gram of tissue
  Radioactivity in Kidney: 5.95 (0.16) %injected dose/gram of tissue
  Radioactivity in Large intestine: 5.53 (0.96) %injected dose/gram of tissue
  Radioactivity in Liver: 19.82 (2.48) %injected dose/gram of tissue
  Radioactivity in Lung: 3.02 (0.51) %injected dose/gram of tissue
  Radioactivity in Muscle: 1.05 (0.18) %injected dose/gram of tissue
  Radioactivity in Pancreas: 2.15 (0.13) %injected dose/gram of tissue
  Radioactivity in Small intestine: 32.72 (3.10) %injected dose/gram of tissue
  Radioactivity in Spleen: 2.51 (0.17) %injected dose/gram of tissue
  Radioactivity in Stomach: 0.67 (0.14) %injected dose /organ
[1]
  Cellular uptake in BxPC3-luc cells: more highly accumulated in BxPC3-luc cells than in MCF7 cells
[2]
  Stability in 0.1 M PBS (pH 7.4): 93.0 ± 0.6%
[3]; 10 min
  Radioactivity in Blood: 1.68 (0.07) %injected dose/gram tissue
  Radioactivity in Bone: 1.88 (0.15) %injected dose/gram tissue
  Radioactivity in Brain: 0.43 (0.02) %injected dose/gram tissue
  Radioactivity in Heart: 2.70 (0.24) %injected dose/gram tissue
  Radioactivity in Kidney: 5.21 (0.53) %injected dose/gram tissue
  Radioactivity in Large intestine: 0.88 (0.08) %injected dose/gram tissue
  Radioactivity in Liver: 25.80 (2.54) %injected dose/gram tissue
  Radioactivity in Lung: 3.08 (0.65) %injected dose/gram tissue
  Radioactivity in Muscle: 1.28 (0.19) %injected dose/gram tissue
  Radioactivity in Pancreas: 2.61 (0.20) %injected dose/gram tissue
  Radioactivity in Small intestine: 3.28 (0.32) %injected dose/gram tissue
  Radioactivity in Spleen: 3.05 (1.14) %injected dose/gram tissue
  Radioactivity in Stomach: 1.31 (0.22) %injected dose /organ
[3]; 1 h
  Radioactivity in Blood: 0.65 (0.05) %injected dose/gram tissue
  Radioactivity in Bone: 1.60 (0.27) %injected dose/gram tissue
  Radioactivity in Brain: 0.22 (0.05) %injected dose/gram tissue
  Radioactivity in Heart: 1.14 (0.09) %injected dose/gram tissue
  Radioactivity in Kidney: 2.03 (0.33) %injected dose/gram tissue
  Radioactivity in Large intestine: 2.23 (0.75) %injected dose/gram tissue
  Radioactivity in Liver: 7.59 (0.76) %injected dose/gram tissue
  Radioactivity in Lung: 1.18 (0.10) %injected dose/gram tissue
  Radioactivity in Muscle: 0.91 (0.45) %injected dose/gram tissue
  Radioactivity in Pancreas: 1.24 (0.16) %injected dose/gram tissue
  Radioactivity in Small intestine: 14.30 (0.23) %injected dose/gram tissue
  Radioactivity in Spleen: 1.47 (0.20) %injected dose/gram tissue
  Radioactivity in Stomach: 1.10 (0.24) %injected dose /organ
[3]; 4 h
  Radioactivity in Blood: 0.25 (0.04) %injected dose/gram tissue
  Radioactivity in Bone: 1.32 (0.12) %injected dose/gram tissue
  Radioactivity in Brain: 0.19 (0.01) %injected dose/gram tissue
  Radioactivity in Heart: 0.65 (0.05) %injected dose/gram tissue
  Radioactivity in Kidney: 0.65 (0.15) %injected dose/gram tissue
  Radioactivity in Large intestine: 28.99 (2.21) %injected dose/gram tissue
  Radioactivity in Liver: 2.19 (1.38) %injected dose/gram tissue
  Radioactivity in Lung: 0.45 (0.07) %injected dose/gram tissue
  Radioactivity in Muscle: 0.57 (0.24) %injected dose/gram tissue
  Radioactivity in Pancreas: 0.68 (0.10) %injected dose/gram tissue
  Radioactivity in Small intestine: 4.50 (2.02) %injected dose/gram tissue
  Radioactivity in Spleen: 0.88 (0.08) %injected dose/gram tissue
  Radioactivity in Stomach: 0.59 (0.26) %injected dose /organ
[3]; 24 h
  Radioactivity in Blood: 0.39 (0.05) %injected dose/gram tissue
  Radioactivity in Bone: 1.32 (0.17) %injected dose/gram tissue
  Radioactivity in Brain: 0.20 (0.02) %injected dose/gram tissue
  Radioactivity in Heart: 0.72 (0.11) %injected dose/gram tissue
  Radioactivity in Kidney: 0.37 (0.05) %injected dose/gram tissue
  Radioactivity in Large intestine: 0.18 (0.00) %injected dose/gram tissue
  Radioactivity in Liver: 0.18 (0.04) %injected dose/gram tissue
  Radioactivity in Lung: 0.56 (0.07) %injected dose/gram tissue
  Radioactivity in Muscle: 0.54 (0.04) %injected dose/gram tissue
  Radioactivity in Pancreas: 0.68 (0.03) %injected dose/gram tissue
  Radioactivity in Small intestine: 0.18 (0.05) %injected dose/gram tissue
  Radioactivity in Spleen: 0.72 (0.24) %injected dose/gram tissue
  Radioactivity in Stomach: 0.35 (0.06) %injected dose /organ
